Reference: article PMC9609871, “Binding and Kinetic Analysis of Human Protein Phosphatase PP2A Interactions with Caspase 9 Protein and the Interfering Peptide C9h” (Pharmaceutics, 2022)
Peptide text beside a SMILES is read from it. * marks the point of attachment. Biotin = O=C1N[C@H]2[C@H](CS[C@H]2CCCCC(=O)*)N1

Columns and labels:
PP2A [1] = target: T1, PP2A (Homo sapiens, UniProt P67775); test: ELISA: PP2A binding to immobilized biotinylated C9h peptides; details: OD 450 nm
T1 construct: purchased LSBio
Procedure: A total of 100 μL of biotinylated peptides diluted at 100 μM in PBS was incubated for 2 h at room temperature in a 96-well Streptavidine-coated plate (Pierce, Illkirch, Strasbourg, France). Wells were washed five times with PBS/0.05% Tween-20 (PBST) and filled with 100 μL of PP2A (Sigma) diluted in PBS/2.5% BSA (Sigma) at the indicated dilutions. The plate was incubated over night at 4 °C and washed five times with PBST. A total of 100 μL of rabbit polyclonal IgG anti-human PP2Aα (Santa Cruz Biotechnology, Heidelberg, Germany) was added at 5 μg/mL in PBS/BSA for 1 h at room temperature. Wells were washed 5 times with PBST and filled with 100 μL of HRP conjugated anti-rabbit IgG (Sigma) diluted at 1:20,000 in PBS/BSA for 1 h at room temperature. Wells were washed 5 times with PBST, and 100 μL of TMB substrate (Pierce) were added and incubated for 15–45 min. The reaction was stopped with 50 μL of 2 N sulphuric acid, and the absorbance was measured at 450 nm on a Multiskan EX plate reader (Thermo Scientific, Illkirch, Strasbourg, France). The Caspase 9 peptide C9h was labelled with biotin at the N-terminal and C-terminal end of the peptide.

PP2A [2] = target: T1, PP2A; test: BLI: PP2A binding to immobilized biotinylated C9h-Cter peptide (Streptavidin biosensor)
Procedure: Kinetic measurements of PP2A against biotinylated C9h-Cter peptide were run with Streptavidin biosensors (Fortebio, #18-5019). The initial step consisted of coating the biosensor with the peptide diluted in SD at 100 µM for 180 s in 4 µL (not shown) and was followed by three steps for the kinetic study: (i) initial baseline in 300 µL SD for 30 s was measured; (ii) association of PP2A at the indicated concentrations for 180 s in 4 µL was used; and (iii) dissociation step was then monitored in 300 µL SD for 150 s.
Experiments using empty immunosensors (no ligand loaded) were run as control. Sensorgrams were fit globally to a 1:1 binding model by BLItz Pro software, from which the association (kon) and dissociation (koff) rate constants and apparent affinities (KD) were calculated. X2 is the sum of squared deviations between the actual data point and the fitted curve. Values close to zero indicate a good curve fit. The R2 coefficient of determination is a statistical measure of how well the fitted curve approximate the real data points. Values of R2 near 1 indicate a near-perfect fit.

Caspase 9 = test: BLI: Caspase 9 analyte binding to immobilized PP2A (Protein A biosensor, anti-PP2A); design: species or system human; details: summary: close to, Caspase 9 analyte on immobilized PP2A; read-out: affinity, both models
Procedure: Kinetic analysis was performed based on biolayer interferometry (BLI) by using a BLItz instrument (ForteBio, Bayonne, France) at room temperature. Prior to use, each biosensor was hydrated in sample diluent (SD: PBS1X, pH 7.0, 0.02% Tween 20, 0.1% BSA) for at least 10 min. Kinetic measurements of PP2A/Caspase 9 interactions were run with Protein A biosensors (Fortebio) and consisted of seven steps, all performed in reaction buffer, as follows: (i) initial baseline in 300 µL SD for 30 s was measured; (ii) 4 µL of mouse anti-Caspase 9 or rabbit anti-PP2A were immobilized on the sensor for 150 s at 133 nM; (iii) the immunosensor was washed with 300 µL SD for 120 s; (iv) 4 µL of purified ligand Caspase 9 at 566 nM (Origen) or PP2A at 694 nM (LSBio) were loaded on the immunosensor for 150 s; (v) the ligand-coated immunosensor was washed with 300 µL SD for 120 s; (vi) association of purified analytes diluted in SD at the mentioned concentrations was studied for 150 s in 4 µL; and (vii) dissociation step was then monitored in 300 µL SD for 120 s.
Experiments using empty immunosensors (no ligand loaded) were run as control. Sensorgrams were fit globally to a 1:1 binding model by BLItz Pro software, from which the association (kon) and dissociation (koff) rate constants and apparent affinities (KD) were calculated. […]

T1 sequence (P67775 whole entry): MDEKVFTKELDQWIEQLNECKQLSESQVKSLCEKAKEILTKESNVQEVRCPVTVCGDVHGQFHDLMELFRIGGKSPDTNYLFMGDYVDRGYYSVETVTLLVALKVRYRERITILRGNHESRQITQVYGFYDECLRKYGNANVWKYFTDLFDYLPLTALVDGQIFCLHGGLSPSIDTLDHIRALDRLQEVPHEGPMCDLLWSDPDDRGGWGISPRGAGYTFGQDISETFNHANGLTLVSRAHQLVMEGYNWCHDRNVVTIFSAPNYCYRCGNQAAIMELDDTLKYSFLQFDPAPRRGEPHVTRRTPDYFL

koff (PP2A [2]; biotinylated C9h-Cter coated at 100 µM, analyte PP2A 463, 556 and 694 nM, pH 7.0, room temperature, dissociation 150 s, global 1:1 fit) [s⁻¹]	dissociation rate of PP2A relative to that with immobilized Caspase 9 (PP2A [2]; immobilized C9h-Cter versus immobilized Caspase 9)	affinity for PP2A compared with whole protein Caspase 9 (PP2A [2]; qualitative comparison)	Kd (Caspase 9) [nM]	Compound	signal recognition compared with C9h-Nter (PP2A [1]; PP2A 0.6 μg/mL, duplicate wells)	binding of PP2A to biotinylated peptide (PP2A [1]; peptide 100 μM on streptavidin plate, PP2A 0.6 μg/mL overnight at 4 °C, mean of duplicate wells, representative of two independent experiments, irrelevant biotinylated peptide as negative control)
0.0087	approximatively one log higher	slightly lower affinity		CC[C@H](C)[C@H](NC(=O)[C@H](CC(=O)O)NC(=O)[C@H](CC(=O)O)NC(=O)[C@H](CC(C)C)NC(=O)[C@@H](NC(=O)[C@H](CCC(=O)O)NC(=O)[C@@H](NC(=O)[C@@H](N)Cc1ccc(O)cc1)C(C)C)[C@@H](C)O)C(=O)N[C@@H](Cc1ccccc1)C(=O)N[C@@H](CCC(=O)O)C(=O)N[C@@H](CCC(N)=O)C(=O)N[C@@H](Cc1c[nH]c2ccccc12)C(=O)N[C@@H](C)C(=O)N[C@@H](Cc1c[nH]cn1)C(=O)N[C@@H](CO)C(=O)N[C@@H](CCC(=O)O)C(=O)N[C@@H](CC(=O)O)C(=O)N[C@@H](CC(C)C)C(=O)N[C@@H](CCCCNC(=O)CCCC[C@@H]1SC[C@@H]2NC(=O)N[C@@H]21)C(=O)O [C9h-Cter] (H-YVETLDDIFEQWAHSEDLK(Biotin)-OH; N-terminus and C-terminus assumed)	stronger signal recognition than that of C9h-Nter	bind to the PP2A protein in a specific manner
			~100	PP2A: protein phosphatase 2A (LSBio), serine/threonine phosphatase		
